Test results from ChEMBL document CHEMBL3758139, “Novel thiol-based histone deacetylase inhibitors bearing 3-phenyl-1H-pyrazole-5-carboxamide scaffold as surface recognition motif: Design, synthesis and SAR study” (Bioorg Med Chem Lett, 2016).

How the values were obtained:
[1] = Retention time of the compound; format: physicochemical
[2] = biological target: T1, Protein deacetylase HDAC6 (Homo sapiens, UniProt Q9UBN7); assay: Inhibition of recombinant human HDAC6
T1 sequence (Q9UBN7 whole entry): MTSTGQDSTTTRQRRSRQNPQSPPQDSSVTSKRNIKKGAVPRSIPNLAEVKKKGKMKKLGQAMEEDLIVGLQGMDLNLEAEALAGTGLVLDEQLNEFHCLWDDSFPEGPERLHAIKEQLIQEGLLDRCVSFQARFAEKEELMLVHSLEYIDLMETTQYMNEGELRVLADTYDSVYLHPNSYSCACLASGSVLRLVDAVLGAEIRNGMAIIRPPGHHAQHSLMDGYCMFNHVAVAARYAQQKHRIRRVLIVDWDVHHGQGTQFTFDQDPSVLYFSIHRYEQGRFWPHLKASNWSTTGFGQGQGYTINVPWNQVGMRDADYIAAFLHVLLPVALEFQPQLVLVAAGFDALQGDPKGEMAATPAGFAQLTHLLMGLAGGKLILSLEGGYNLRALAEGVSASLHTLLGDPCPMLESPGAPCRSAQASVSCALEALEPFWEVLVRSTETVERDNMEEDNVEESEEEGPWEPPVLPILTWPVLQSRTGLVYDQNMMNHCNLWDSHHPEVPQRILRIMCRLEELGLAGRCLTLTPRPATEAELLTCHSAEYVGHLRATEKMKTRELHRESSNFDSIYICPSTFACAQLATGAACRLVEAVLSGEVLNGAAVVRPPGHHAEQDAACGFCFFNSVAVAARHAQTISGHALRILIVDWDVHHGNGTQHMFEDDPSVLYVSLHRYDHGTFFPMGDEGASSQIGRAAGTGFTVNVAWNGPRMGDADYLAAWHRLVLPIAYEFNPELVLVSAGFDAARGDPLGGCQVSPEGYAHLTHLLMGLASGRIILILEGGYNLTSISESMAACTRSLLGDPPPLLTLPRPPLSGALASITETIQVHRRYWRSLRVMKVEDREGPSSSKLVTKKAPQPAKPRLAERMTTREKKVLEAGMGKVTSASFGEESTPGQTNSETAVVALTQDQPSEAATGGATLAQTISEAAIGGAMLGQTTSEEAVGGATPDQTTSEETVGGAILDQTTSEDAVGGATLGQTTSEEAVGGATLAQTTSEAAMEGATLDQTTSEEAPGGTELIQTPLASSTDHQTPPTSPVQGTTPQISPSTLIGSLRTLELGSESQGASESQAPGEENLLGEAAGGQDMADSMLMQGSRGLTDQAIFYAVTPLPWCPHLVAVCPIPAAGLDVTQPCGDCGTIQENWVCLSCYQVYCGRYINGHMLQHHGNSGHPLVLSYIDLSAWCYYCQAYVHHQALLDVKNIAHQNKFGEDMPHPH

Histone deacetylase 1 = Histone deacetylase 1 (Homo sapiens, UniProt Q13547); assay: Inhibition of recombinant human HDAC1
Histone deacetylase = assay: Inhibition of HDAC in human HeLa nuclear extract; format: protein assay

Histone deacetylase 1, sequence (Q13547 whole entry): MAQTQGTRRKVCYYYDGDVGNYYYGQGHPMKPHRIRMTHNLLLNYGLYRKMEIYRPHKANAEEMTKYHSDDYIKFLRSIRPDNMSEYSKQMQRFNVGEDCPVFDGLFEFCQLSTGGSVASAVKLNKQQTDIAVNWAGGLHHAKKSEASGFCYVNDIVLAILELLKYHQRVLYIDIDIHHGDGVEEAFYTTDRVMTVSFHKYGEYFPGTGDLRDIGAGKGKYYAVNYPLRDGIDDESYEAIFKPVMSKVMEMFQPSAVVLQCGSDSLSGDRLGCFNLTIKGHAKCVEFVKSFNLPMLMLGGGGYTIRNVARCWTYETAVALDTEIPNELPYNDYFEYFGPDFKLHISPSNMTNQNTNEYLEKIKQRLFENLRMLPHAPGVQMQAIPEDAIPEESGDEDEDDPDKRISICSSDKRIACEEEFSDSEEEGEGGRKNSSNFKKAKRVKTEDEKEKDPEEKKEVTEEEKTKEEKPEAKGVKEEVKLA

## CCCn1nc(-c2ccc(F)cc2)cc1C(=O)NCCCCCCS
[1]
  Retention_time: 6.96 min
[2]
  IC50: > 10000 nM
Histone deacetylase 1
  IC50: > 10000 nM
Histone deacetylase
  IC50: > 10 µM

## O=C(NCCCCCCS)c1cc(-c2ccc(F)cc2)n(Cc2ccccc2)n1
[1]
  Retention_time: 5.49 min
[2]
  IC50: > 10000 nM
Histone deacetylase 1
  IC50: > 10000 nM
Histone deacetylase
  IC50: > 10 µM

## CCn1nc(-c2ccc(F)cc2)cc1C(=O)NCCCCCCS
[1]
  Retention_time: 5.79 min
[2]
  IC50: 5000 nM
Histone deacetylase 1
  IC50: > 10000 nM
Histone deacetylase
  IC50: > 10 µM

## O=C(O)CCCn1nc(C(=O)NCCCCCCS)cc1-c1ccc(F)cc1
[1]
  Retention_time: 6.9 min
[2]
  IC50: 450 nM
Histone deacetylase 1
  IC50: 1800 nM
Histone deacetylase
  IC50: 0.81 µM

## O=C(O)CCCn1nc(-c2ccc(F)cc2)cc1C(=O)NCCCCCCS
[1]
  Retention_time: 13.54 min
[2]
  IC50: 90 nM
Histone deacetylase 1
  IC50: 130 nM
Histone deacetylase
  IC50: 0.08 µM

## O=C(NCCCCCS)c1cc(-c2ccc(F)cc2)on1
[1]
  Retention_time: 5 min
[2]
  IC50: 1300 nM
Histone deacetylase 1
  IC50: 2100 nM
Histone deacetylase
  IC50: 3 µM

## O=C(CS)NCCCNC(=O)c1cc(-c2ccc(F)cc2)[nH]n1
[1]
  Retention_time: 3.25 min
[2]
  IC50: 880 nM
Histone deacetylase 1
  IC50: 1400 nM
Histone deacetylase
  IC50: 1.5 µM

## Cc1c(-c2ccc(F)cc2)nn(CCCO)c1C(=O)NCCCCCCS
[1]
  Retention_time: 3.71 min
[2]
  IC50: 5000 nM
Histone deacetylase 1
  IC50: > 10000 nM
Histone deacetylase
  IC50: > 10 µM

## O=C(NCCCCCCS)c1cc(-c2ccc(F)cc2)n[nH]1
[1]
  Retention_time: 3.37 min
[2]
  IC50: 760 nM
Histone deacetylase 1
  IC50: 580 nM
Histone deacetylase
  IC50: 0.69 µM

## O=C(NCCCCCCS)c1cc(-c2ccc(F)cc2)n(CCCCO)n1
[1]
  Retention_time: 3.15 min
[2]
  IC50: 220 nM
Histone deacetylase 1
  IC50: 440 nM
Histone deacetylase
  IC50: 0.54 µM

## CCn1nc(C(=O)NCCCCCCS)cc1-c1ccc(F)cc1
[1]
  Retention_time: 4.29 min
[2]
  IC50: > 10000 nM
Histone deacetylase 1
  IC50: > 10000 nM
Histone deacetylase
  IC50: > 10 µM

## O=C(CCS)NCCCNC(=O)c1cc(-c2ccc(F)cc2)[nH]n1
[1]
  Retention_time: 2.66 min
[2]
  IC50: > 10000 nM
Histone deacetylase 1
  IC50: > 10000 nM
Histone deacetylase
  IC50: > 10 µM

## O=C(NCCCCCCS)c1cc(-c2ccc(F)cc2)nn1CCO
[1]
  Retention_time: 2.86 min
[2]
  IC50: 910 nM
Histone deacetylase 1
  IC50: 330 nM
Histone deacetylase
  IC50: 0.69 µM

## O=C(NCCCCCCS)c1cc(-c2ccc(F)cc2)nn1CCCCO
[1]
  Retention_time: 3.66 min
[2]
  IC50: 140 nM
Histone deacetylase 1
  IC50: 250 nM
Histone deacetylase
  IC50: 0.17 µM

## O=C(O)Cn1nc(C(=O)NCCCCCCS)cc1-c1ccc(F)cc1
[1]
  Retention_time: 7.77 min
[2]
  IC50: 250 nM
Histone deacetylase 1
  IC50: 1900 nM
Histone deacetylase
  IC50: 0.66 µM

## O=C(NCCCCCCS)c1cc(-c2ccc(F)cc2)nn1CCCO
[1]
  Retention_time: 3.81 min
[2]
  IC50: 470 nM
Histone deacetylase 1
  IC50: 1300 nM
Histone deacetylase
  IC50: 1.2 µM

## CCC(C)n1nc(-c2ccc(F)cc2)cc1C(=O)NCCCCCCS (centres undefined)
[1]
  Retention_time: 8.4 min
[2]
  IC50: > 10000 nM
Histone deacetylase 1
  IC50: > 10000 nM
Histone deacetylase
  IC50: > 10 µM

## O=C(O)CCn1nc(C(=O)NCCCCCCS)cc1-c1ccc(F)cc1
[1]
  Retention_time: 2.88 min
[2]
  IC50: 330 nM
Histone deacetylase 1
  IC50: 2700 nM
Histone deacetylase
  IC50: 0.4 µM

## O=C(CCS)NCCNC(=O)c1cc(-c2ccc(F)cc2)[nH]n1
[1]
  Retention_time: 2.74 min
[2]
  IC50: > 10000 nM
Histone deacetylase 1
  IC50: > 10000 nM
Histone deacetylase
  IC50: > 10 µM

## Cn1nc(-c2ccc(F)cc2)cc1C(=O)NCCCCCCS
[1]
  Retention_time: 5.16 min
[2]
  IC50: 2900 nM
Histone deacetylase 1
  IC50: > 10000 nM
Histone deacetylase
  IC50: 3.2 µM

## CC(C)n1nc(-c2ccc(F)cc2)cc1C(=O)NCCCCCCS
[1]
  Retention_time: 7.17 min
[2]
  IC50: 7400 nM
Histone deacetylase 1
  IC50: > 10000 nM
Histone deacetylase
  IC50: > 10 µM

## O=C(NCCCCCS)c1cc(-c2ccc(F)cc2)[nH]n1
[1]
  Retention_time: 2.85 min
[2]
  IC50: 1100 nM
Histone deacetylase 1
  IC50: 2200 nM
Histone deacetylase
  IC50: 1.9 µM

## CCCn1nc(C(=O)NCCCCCCS)cc1-c1ccc(F)cc1
[1]
  Retention_time: 5.2 min
[2]
  IC50: > 10000 nM
Histone deacetylase 1
  IC50: > 10000 nM
Histone deacetylase
  IC50: > 10 µM

## O=C(O)Cn1nc(-c2ccc(F)cc2)cc1C(=O)NCCCCCCS
[1]
  Retention_time: 3.77 min
[2]
  IC50: 40 nM
Histone deacetylase 1
  IC50: 220 nM
Histone deacetylase
  IC50: 0.16 µM

## Cn1nc(C(=O)NCCCCCCS)cc1-c1ccc(F)cc1
[1]
  Retention_time: 3.86 min
[2]
  IC50: 6900 nM
Histone deacetylase 1
  IC50: > 10000 nM
Histone deacetylase
  IC50: > 10 µM

## O=C(CS)NCCNC(=O)c1cc(-c2ccc(F)cc2)[nH]n1
[1]
  Retention_time: 2.85 min
[2]
  IC50: 1800 nM
Histone deacetylase 1
  IC50: 2300 nM
Histone deacetylase
  IC50: 2.2 µM

## Cc1c(-c2ccc(F)cc2)n[nH]c1C(=O)NCCCCCCS
[1]
  Retention_time: 4.08 min
[2]
  IC50: 4400 nM
Histone deacetylase 1
  IC50: > 10000 nM
Histone deacetylase
  IC50: > 10 µM

## O=C(NCCCCS)c1cc(-c2ccc(F)cc2)on1
[1]
  Retention_time: 4.24 min
[2]
  IC50: 4900 nM
Histone deacetylase 1
  IC50: > 10000 nM
Histone deacetylase
  IC50: > 10 µM

## O=C(NCCS)c1cc(-c2ccc(F)cc2)on1
[1]
  Retention_time: 2.91 min
[2]
  IC50: 6500 nM
Histone deacetylase 1
  IC50: > 10000 nM
Histone deacetylase
  IC50: > 10 µM

## O=C(NCCCS)c1cc(-c2ccc(F)cc2)on1
[1]
  Retention_time: 3.37 min
[2]
  IC50: 5800 nM
Histone deacetylase 1
  IC50: > 10000 nM
Histone deacetylase
  IC50: > 10 µM

## Cc1c(-c2ccc(F)cc2)nn(C)c1C(=O)NCCCCCCS
[1]
  Retention_time: 4.77 min
[2]
  IC50: > 10000 nM
Histone deacetylase 1
  IC50: > 10000 nM
Histone deacetylase
  IC50: > 10 µM

## O=C(O)CCn1nc(-c2ccc(F)cc2)cc1C(=O)NCCCCCCS
[1]
  Retention_time: 2.99 min
[2]
  IC50: 210 nM
Histone deacetylase 1
  IC50: 650 nM
Histone deacetylase
  IC50: 0.3 µM

## O=C(NCCCCCCS)c1cc(-c2ccc(F)cc2)n(CCO)n1
[1]
  Retention_time: 3.13 min
[2]
  IC50: 1400 nM
Histone deacetylase 1
  IC50: 3300 nM
Histone deacetylase
  IC50: 2.1 µM

## O=C(CS)NCCCCNC(=O)c1cc(-c2ccc(F)cc2)[nH]n1
[1]
  Retention_time: 2.94 min
[2]
  IC50: 2100 nM
Histone deacetylase 1
  IC50: > 10000 nM
Histone deacetylase
  IC50: 8.6 µM

## CCC(C)n1nc(C(=O)NCCCCCCS)cc1-c1ccc(F)cc1 (centres undefined)
[1]
  Retention_time: 5.87 min
[2]
  IC50: > 10000 nM
Histone deacetylase 1
  IC50: > 10000 nM
Histone deacetylase
  IC50: > 10 µM

## CCCCn1nc(-c2ccc(F)cc2)cc1C(=O)NCCCCCCS
[1]
  Retention_time: 11.92 min
[2]
  IC50: > 10000 nM
Histone deacetylase 1
  IC50: > 10000 nM
Histone deacetylase
  IC50: > 10 µM

## O=C(NCCCCCCS)c1cc(-c2ccc(F)cc2)on1
[1]
  Retention_time: 5.67 min
[2]
  IC50: 880 nM
Histone deacetylase 1
  IC50: 850 nM
Histone deacetylase
  IC50: 0.98 µM

## CC(C)n1nc(C(=O)NCCCCCCS)cc1-c1ccc(F)cc1
[1]
  Retention_time: 4.93 min
[2]
  IC50: > 10000 nM
Histone deacetylase 1
  IC50: > 10000 nM
Histone deacetylase
  IC50: > 10 µM

## O=C(CCS)NCCCCNC(=O)c1cc(-c2ccc(F)cc2)[nH]n1
[1]
  Retention_time: 2.54 min
[2]
  IC50: > 10000 nM
Histone deacetylase 1
  IC50: > 10000 nM
Histone deacetylase
  IC50: > 10 µM

## CCCCn1nc(C(=O)NCCCCCCS)cc1-c1ccc(F)cc1
[1]
  Retention_time: 6.79 min
[2]
  IC50: > 10000 nM
Histone deacetylase 1
  IC50: > 10000 nM
Histone deacetylase
  IC50: > 10 µM

## O=C(NCCCCCCS)c1cc(-c2ccc(F)cc2)n(CCCO)n1
[1]
  Retention_time: 3.19 min
[2]
  IC50: 850 nM
Histone deacetylase 1
  IC50: 3600 nM
Histone deacetylase
  IC50: 3.1 µM

## O=C(NCCCCCCS)c1cc(-c2ccc(F)cc2)nn1Cc1ccccc1
[1]
  Retention_time: 7.52 min
[2]
  IC50: > 10000 nM
Histone deacetylase 1
  IC50: > 10000 nM
Histone deacetylase
  IC50: > 10 µM

## C/C=C1\NC(=O)[C@H]2CSSCC/C=C/[C@H](CC(=O)N[C@H](C(C)C)C(=O)N2)OC(=O)[C@H](C(C)C)NC1=O [ROMIDEPSIN]
Histone deacetylase 1
  IC50: 140 nM
